The values that follow are results of earlier work, collected in patent US10907142B2, “Oligosaccharides comprising an aminooxy group and conjugates thereof” (Genzyme Corporation, priority 2007, dated 2021).

This data set has as its system skeletal and cardiac muscle glycogen. The conditions noted are these: murine model of Pompe disease; compared with recombinant human GAA; conjugate prepared by the method of U.S. Pat. No. 7,001,994.

With “conjugate of the lysosomal enzyme acid α-glucosidase (GAA) with a a bis-M6P oligosaccharide: GAA coupled with a bis-M6P oligosaccharide by the method of U.S. Pat. No. 7,001,994”, the “reducing skeletal and cardiac muscle glycogen” value is “more effective in reducing skeletal and cardiac muscle glycogen than recombinant human GAA”.
